In publication PMC4997316, “A ruthenium polypyridyl intercalator stalls DNA replication forks, radiosensitizes human cancer cells and is enhanced by Chk1 inhibition” (Scientific Reports, 2016):

Columns and labels:
HeLa cells = assay: irradiation and clonogenic survival assay; type: cell-based, human; conditions: for DEF (dose enhancement factor): LD10 [without complex]/LD10 [with complex]; for Radiosensitivity (AUC): area under the survival curve, DMSO 3.83; for LD10: from regression of survival curves, DMSO 6.7; for radiation enhancement ratio (RER): radiosensitivity [without complex]/radiosensitivity [with complex]
Protocol: Chemotherapeutics are often used in combination with external beam ionising radiation in the treatment of cancers and many drugs that inhibit DNA replication are potent radiosensitizers. To examine the possibility that 1 may function as a radiosensitizer, HeLa cells were pre-treated with 1 for 20 h before irradiation (0–6 Gy ionising irradiation (IR); ^137Cs-γ-rays; dose rate = 0.809 Gy min^−1). After further incubation for 4 h with the complex, the relative impact on cell viability was assessed by clonogenic survival. Complex 2, which achieves its impact on cell proliferation through non-DNA damage-based autophagy, was included in parallel for comparison. […] The formation of γH2AX is an early response to IR-induced DSB generation and may provide an indication of DNA damage levels. […] These findings indicate increased levels of DNA damage at an early time point accompany the enhanced radiation-induced cell killing in HeLa cells radiosensitised by 1.
HeLa cells were pre-treated with DMSO, 1 or 2 for 20 h and irradiated using a ^137Cs γ-irradiator (IBL637, CIS Bio Int.; dose rate = 0.809 Gy min^−1). Solutions were removed 4 h after irradiation; cells detached using Trypsin and re-seeded in 6 well plates at a density of 1000 cells/well (in triplicate). Cells were incubated for 7–10 days after re-seeding to allow colony formation before being fixed with 10% methanol, 10% acetic acid and stained with 0.4% methylene blue. Colonies containing 50 cells or greater were counted using a Gelcount instrument and accompanying software (Oxford Optronix). Plating efficiencies were determined for each treatment condition and normalised to controls to provide the survival fraction. Resultant survival fraction (S.F.) versus radiation dose curves were fitted using a second order polynomial function (R^2 values > 0.99). […]
Table S2. Radiosensitization data for 1 and 2 in HeLa cells.
LD10 (Gy) DEF Radiosensitivity RER
Survival variables LD10 (10 % lethal dose) and radiosensitivity, which is expressed as the area under
the survival curve (AUC), derived from linear regression analyses of survival curves (R 2 values ≥
0.989 for all fits). Dose enhancement factor (DEF) = LD 10 [without complex]/LD10 [with complex].
Radiation enhancement ratio (RER) = radiosensitivity [without complex]/radiosensitivity [with

[1] = octanol/water partition coefficient (Log P)
Calf thymus DNA = assay: relative viscosity of DNA on addition of complex; type: binding; conditions: calf thymus DNA 4.19 × 10^−5 M, r 0-0.3
Protocol: The novel ruthenium(II) polypyridyl complexes [Ru(dppz)2(PIP)]^2+, 1, and [Ru(dppz)2(p-HPIP)]^2+, 2, (dppz = dipyrido[3,2-a:2′,3′-c]phenazine, PIP = (2-(phenyl)imidazo[4,5-f][1,10]phenanthroline) and p-HPIP ((2-(4-hydroxyphenyl)imidazo[4,5-f][1,10]phenanthroline)) were prepared by modification of reported synthetic pathways[17][30][31] and characterised by standard spectroscopic and analytical techniques (Figs S1–7 in the Supplementary Information). Evidence of a reversible binding interaction with DNA is provided by evidence of hypochromicity of the absorption spectra of 1 and 2 with increasing concentrations of DNA (Fig. S8). […] To investigate specific binding mode, relative viscosities of DNA with increasing concentrations of each complex were determined, where an increase in relative viscosity corresponds to the unwinding and lengthening of the DNA strand as a result of intercalation. […]
Calf thymus DNA, CT-DNA, (Sigma) was dissolved in NaCl (25 mm) and Tris (5 mm, pH 7.0) buffer and concentrations of determined spectroscopically (ε = 6600 dm^3 mol^−1cm^−1 at 260 nm). […] An equilibration time of 20 min was allowed before the flow times were recorded by Cannon–Manning semimicro viscometer (size 50) immersed in a thermostat bath (27 °C). Times were recorded in triplicate to within 0.1 second of each other and averaged values obtained.

[2] = tested on: primary human foreskin fibroblasts (HFF); assay: MTT proliferation assay, HFF; type: cell-based; conditions: 24 h proliferation assay
Protocol: (LC3 = Microtubule-associated protein light chain 3) (Fig. 2b, bottom).
Cells were seeded in 96 well plates at 20,000 cells/well, allowed to proliferate for 24 h before treatment as described in the main text. 0.5 mg ml^−1 MTT (thiazolyl blue tetrazolium bromide) dissolved in serum-free media was added for 60 minutes and the formazan product eluted using acidified isopropanol. The absorbance at 540 nm was quantified by plate reader (reference wavelength 650 nm). The metabolic activity of the cell population was determined as a percentage of a negative (solvent) control.

Structure (SMILES) | DEF (dose enhancement factor) (HeLa cells; 40 μM) | Radiosensitivity (AUC) (HeLa cells; 40 μM) | LD10 (HeLa cells; 40 μM) | radiation enhancement ratio (RER) (HeLa cells; 40 μM) | Log P [1] | relative viscosity of DNA (Calf thymus DNA) | IC50 [2] | decrease in cell survival versus 6 Gy γ-rays alone (HeLa cells; 40 μM plus 6 Gy) | survival fraction (S.F.) with 6 Gy γ-rays (HeLa cells; 40 μM, 20 h before and 4 h after irradiation, 6 Gy alone 21.1 +/− 2%) | survival fraction (S.F.) in the absence of radiation (HeLa cells; 40 μM, 24 h)
Oc1ccc(-c2nc3c4cccnc4c4ncccc4c3[nH]2)cc1.[Ru+2].c1ccc2nc3c4cccnc4c4ncccc4c3nc2c1.c1ccc2nc3c4cccnc4c4ncccc4c3nc2c1 [Complex 2, [Ru(dppz)2(p-HPIP)]^2+] | 1.14 | 3.39 | 5.9 Gy | 1.13 | 0.076 | increase relative viscosity of DNA | > 100 µM | – | – | –
[Ru+2].c1ccc(-c2nc3c4cccnc4c4ncccc4c3[nH]2)cc1.c1ccc2nc3c4cccnc4c4ncccc4c3nc2c1.c1ccc2nc3c4cccnc4c4ncccc4c3nc2c1 [Complex 1, [Ru(dppz)2(PIP)]^2+] | 1.49 | 2.59 | 4.5 Gy | 1.48 | 0.403 | increase relative viscosity of DNA | > 100 µM | 6.8 fold | 3.1 +/− 1% | ~ 85%
